Results published in PubChem BioAssay AID1963840 (Molecular Pharmacology Branch, DTP, NCI, 2024).

Test system: 695427-040-R-J1-PDC complex spheroid viability
Test: Anticancer human tumor 695427-040-R-J1-PDC patient-derived colon adenocarcinoma cell line growth inhibition [POLQ]
Conditions: for IC50: curve of first compound; for viability, T/C: stronger effect = lower value
How it was run: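 Patient-derived tumour cells were co-cultured with HUVEC and mesenchymal stem cells as multicellular spheroids at 37 °C. They were treated with POLQ inhibitors (novobiocin, ART-558, RP6685) alone or combined with other agents. Top concentrations were at or near clinical Cmax (otherwise 10 microM; SN-38 at 1 microM), decreasing in half-log steps.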

[1] = second compound 0.0316 µM, first compound 0.00316 µM
[2] = second compound 0.0316 µM, first compound 0.01 µM
[3] = second compound 0.0316 µM, first compound 0.0316 µM
[4] = second compound 0.0316 µM, first compound 0.1 µM
[5] = second compound 0.0316 µM, first compound 0.316 µM
[6] = second compound 0.0316 µM, first compound 1 µM
[7] = second compound 0.1 µM, first compound 0.00316 µM
[8] = second compound 0.1 µM, first compound 0.01 µM
[9] = second compound 0.1 µM, first compound 0.0316 µM
[10] = second compound 0.1 µM, first compound 0.1 µM
[11] = second compound 0.1 µM, first compound 0.316 µM
[12] = second compound 0.1 µM, first compound 1 µM
[13] = second compound 0.316 µM, first compound 0.00316 µM
[14] = second compound 0.316 µM, first compound 0.01 µM
[15] = second compound 0.316 µM, first compound 0.0316 µM
[16] = second compound 0.316 µM, first compound 0.1 µM
[17] = second compound 0.316 µM, first compound 0.316 µM
[18] = second compound 0.316 µM, first compound 1 µM
[19] = second compound 1 µM, first compound 0.00316 µM
[20] = second compound 1 µM, first compound 0.01 µM
[21] = second compound 1 µM, first compound 0.0316 µM
[22] = second compound 1 µM, first compound 0.1 µM
[23] = second compound 1 µM, first compound 0.316 µM
[24] = second compound 1 µM, first compound 1 µM
[25] = second compound 3.16 µM, first compound 0.00316 µM
[26] = second compound 3.16 µM, first compound 0.01 µM
[27] = second compound 3.16 µM, first compound 0.0316 µM
[28] = second compound 3.16 µM, first compound 0.1 µM
[29] = second compound 3.16 µM, first compound 0.316 µM
[30] = second compound 3.16 µM, first compound 1 µM
[31] = second compound 10 µM, first compound 0.00316 µM
[32] = second compound 10 µM, first compound 0.01 µM
[33] = second compound 10 µM, first compound 0.0316 µM
[34] = second compound 10 µM, first compound 0.1 µM
[35] = second compound 10 µM, first compound 0.316 µM
[36] = second compound 10 µM, first compound 1 µM
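Also: spheroids exposed to compounds for seven days.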
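For viability, T/C in this document: 100% = DMSO vehicle control viability.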

## C=CCn1c(=O)c2cnc(Nc3ccc(N4CCN(C)CC4)cc3)nc2n1-c1cccc(C(C)(C)O)n1 + Cc1cccc(N(C)C(=O)C2C(O)CCN2c2nc(C)cc(C(F)(F)F)c2C#N)c1
Second compound 0.0316 µM
  IC50: > 1000 nM
Second compound 0.1 µM
  IC50: > 1000 nM
Second compound 0.316 µM
  IC50: > 1000 nM
Second compound 1 µM
  IC50: > 1000 nM
Second compound 3.16 µM
  IC50: > 1000 nM
Second compound 10 µM
  IC50: > 1000 nM
[1]
  viability, T/C: 100%
[2]
  viability, T/C: 99.4%
[3]
  viability, T/C: 101%
[4]
  viability, T/C: 92.6%
[5]
  viability, T/C: 94.3%
[6]
  viability, T/C: 83.6%
[7]
  viability, T/C: 115%
[8]
  viability, T/C: 108%
[9]
  viability, T/C: 93.2%
[10]
  viability, T/C: 103%
[11]
  viability, T/C: 93.4%
[12]
  viability, T/C: 69.5%
[13]
  viability, T/C: 105%
[14]
  viability, T/C: 121%
[15]
  viability, T/C: 95.5%
[16]
  viability, T/C: 92.5%
[17]
  viability, T/C: 107%
[18]
  viability, T/C: 90.1%
[19]
  viability, T/C: 109%
[20]
  viability, T/C: 95.9%
[21]
  viability, T/C: 102%
[22]
  viability, T/C: 100%
[23]
  viability, T/C: 98.1%
[24]
  viability, T/C: 64.2%
[25]
  viability, T/C: 91.8%
[26]
  viability, T/C: 90.8%
[27]
  viability, T/C: 88.9%
[28]
  viability, T/C: 89.3%
[29]
  viability, T/C: 91.4%
[30]
  viability, T/C: 69.5%
[31]
  viability, T/C: 93.9%
[32]
  viability, T/C: 89.3%
[33]
  viability, T/C: 87.7%
[34]
  viability, T/C: 92.7%
[35]
  viability, T/C: 91.4%
[36]
  viability, T/C: 67.9%

## CC[C@@]1(O)C(=O)OCc2c1cc1n(c2=O)Cc2cc3c(CN(C)C)c(O)ccc3nc2-1 + Cc1cccc(N(C)C(=O)C2C(O)CCN2c2nc(C)cc(C(F)(F)F)c2C#N)c1
Second compound 0.0316 µM
  IC50: > 100 nM
Second compound 0.1 µM
  IC50: > 100 nM
Second compound 0.316 µM
  IC50: > 100 nM
Second compound 1 µM
  IC50: > 100 nM
Second compound 3.16 µM
  IC50: > 100 nM
Second compound 10 µM
  IC50: > 100 nM
Second compound 0.0316 µM, first compound 0.000316 µM
  viability, T/C: 110%
Second compound 0.0316 µM, first compound 0.001 µM
  viability, T/C: 98.7%
[1]
  viability, T/C: 104%
[2]
  viability, T/C: 94.5%
[3]
  viability, T/C: 99.4%
[4]
  viability, T/C: 88.5%
Second compound 0.1 µM, first compound 0.000316 µM
  viability, T/C: 109%
Second compound 0.1 µM, first compound 0.001 µM
  viability, T/C: 98.5%
[7]
  viability, T/C: 94.7%
[8]
  viability, T/C: 104%
[9]
  viability, T/C: 97.5%
[10]
  viability, T/C: 88.7%
Second compound 0.316 µM, first compound 0.000316 µM
  viability, T/C: 99.1%
Second compound 0.316 µM, first compound 0.001 µM
  viability, T/C: 95.9%
[13]
  viability, T/C: 98.2%
[14]
  viability, T/C: 91.5%
[15]
  viability, T/C: 101%
[16]
  viability, T/C: 87.3%
Second compound 1 µM, first compound 0.000316 µM
  viability, T/C: 98.2%
Second compound 1 µM, first compound 0.001 µM
  viability, T/C: 93.4%
[19]
  viability, T/C: 97.5%
[20]
  viability, T/C: 97.1%
[21]
  viability, T/C: 93.7%
[22]
  viability, T/C: 86.9%
Second compound 3.16 µM, first compound 0.000316 µM
  viability, T/C: 92.4%
Second compound 3.16 µM, first compound 0.001 µM
  viability, T/C: 98.5%
[25]
  viability, T/C: 91.7%
[26]
  viability, T/C: 98.4%
[27]
  viability, T/C: 101%
[28]
  viability, T/C: 81.7%
Second compound 10 µM, first compound 0.000316 µM
  viability, T/C: 85.6%
Second compound 10 µM, first compound 0.001 µM
  viability, T/C: 89.4%
[31]
  viability, T/C: 104%
[32]
  viability, T/C: 90%
[33]
  viability, T/C: 87.5%
[34]
  viability, T/C: 77.7%

## CCc1c2c(nc3ccc(O)cc13)-c1cc3c(c(=O)n1C2)COC(=O)[C@]3(O)CC + Cc1cccc(N(C)C(=O)C2C(O)CCN2c2nc(C)cc(C(F)(F)F)c2C#N)c1
Second compound 0.0316 µM
  IC50: > 1000 nM
Second compound 0.1 µM
  IC50: > 1000 nM
Second compound 0.316 µM
  IC50: > 1000 nM
Second compound 1 µM
  IC50: > 1000 nM
Second compound 3.16 µM
  IC50: 912 nM
Second compound 10 µM
  IC50: 572 nM
[1]
  viability, T/C: 101%
[2]
  viability, T/C: 90.1%
[3]
  viability, T/C: 83%
[4]
  viability, T/C: 81.7%
[5]
  viability, T/C: 66.1%
[6]
  viability, T/C: 51.4%
[7]
  viability, T/C: 99.6%
[8]
  viability, T/C: 98.9%
[9]
  viability, T/C: 80.5%
[10]
  viability, T/C: 76.3%
[11]
  viability, T/C: 69.3%
[12]
  viability, T/C: 52.8%
[13]
  viability, T/C: 93.2%
[14]
  viability, T/C: 92.8%
[15]
  viability, T/C: 90.7%
[16]
  viability, T/C: 75.8%
[17]
  viability, T/C: 67.4%
[18]
  viability, T/C: 49.7%
[19]
  viability, T/C: 96.2%
[20]
  viability, T/C: 94.5%
[21]
  viability, T/C: 85.2%
[22]
  viability, T/C: 77.3%
[23]
  viability, T/C: 67.9%
[24]
  viability, T/C: 51.2%
[25]
  viability, T/C: 89.4%
[26]
  viability, T/C: 84.9%
[27]
  viability, T/C: 82.2%
[28]
  viability, T/C: 82.8%
[29]
  viability, T/C: 66.3%
[30]
  viability, T/C: 48.6%
[31]
  viability, T/C: 84.2%
[32]
  viability, T/C: 80.7%
[33]
  viability, T/C: 78.9%
[34]
  viability, T/C: 70.5%
[35]
  viability, T/C: 58.5%
[36]
  viability, T/C: 41.7%
